The nature of this test: After 30-60 minutes incubation at 25° C., the surrogate substrate DiFMUP (Invitrogen, cat #D6567) was added to the reaction and incubated at 25° C. for 30 minutes. The reaction was then quenched by the addition of 5 μl of a 160 μM solution of bpV(Phen) (Enzo Life Sciences cat #ALX-270-204). The fluorescence signal was monitored using a microplate reader (Envision, Perki-Elmer) using excitation and emission wavelengths of 340 nm and 450 nm, respectively. The inhibitor dose response curves were analyzed using normalized IC50 regression curve fitting with control based normalization.

One may read the pIC50 as the IC50 on a negative log10 scale, so that one unit is a factor of ten. High values mean a low IC50, low ones a high IC50.

pIC50: −log10 of the molar value.

`CC1(CN)CCN(c2nnc(Sc3cccc(NC(=O)c4cnc5ccccn5c4=O)c3Cl)c(N)n2)CC1`: the pIC50 was 6.76.

For the origin of these results see ChEMBL document CHEMBL5728299, “Compounds and compositions for inhibiting the activity of SHP2” (2021).
